Data taken from patent US6479435B1, “Diaryl ethers and processes for their preparation and herbicidal and desiccant compositions containing them” (ISK Americas Incorporated, priority 1997, dated 2002).

Assays:
Format in all cases: in vivo
[1] = test system: Johnsongrass (Sorghum halepense, SORHA); test: Pre-emerge greenhouse herbicide test, phytotoxicity rating; details: 14 days after application, rating scale 0-100
Outline: (§1)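 Visual 0–100 injury rating (100 = all plants dead) taken 14 days after treatment. Rates of 125–1000 g ai/ha in acetone, 187 l/ha, were sprayed onto soil one day post-sowing; pots were surface-watered to incorporate, then bottom-watered.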

[2] = test system: barnyardgrass (Echinochloa crusgalli, ECHCG); test: as above; details: 14 days after application, rating scale 0-100
Outline: as §1

[3] = test system: common ragweed (Ambrosia artemisiifolia L., AMBEL); test: as above; details: 14 days after application, rating scale 0-100
Outline: as §1

[4] = test system: green foxtail (Setaria viridis, SETVI); test: as above; details: 14 days after application, rating scale 0-100
Outline: as §1

[5] = test system: ivyleaf morningglory (Ipomoea hederacea, IPOHE); test: as above; details: 14 days after application, rating scale 0-100
Outline: as §1

[6] = test system: lambsquarters (Chenopodium album, CHEAL); test: as above; details: 14 days after application, rating scale 0-100
Outline: as §1

[7] = test system: large crabgrass (Digitaria sanguinalis, DIGSA); test: as above; details: 14 days after application, rating scale 0-100
Outline: as §1

[8] = test system: redroot pigweed (Amaranthus retroflexus, AMARE); test: as above; details: 14 days after application, rating scale 0-100
Outline: as §1

[9] = test system: sicklepod (Cassia obtusifolia, CASOB); test: as above; details: 14 days after application, rating scale 0-100
Outline: as §1

[10] = test system: velvetleaf (Abutilon theophrasti, ABUTH); test: as above; details: 14 days after application, rating scale 0-100
Outline: as §1

[11] = test system: field corn (Zea mays L., var. Dekalb 535, CORN); test: Pre-emerge greenhouse test, crop damage rating; details: 14 days after application, rating scale 0-100
Outline: as §1

[12] = test system: upland rice (Oryza sp., var.Tebonnet, RICE); test: Pre-emerge greenhouse test, crop damage rating; details: 14 days after application, rating scale 0-100
Outline: as §1

[13] = test system: soybean (Glycine max L., var. Pella 86, SOY); test: Pre-emerge greenhouse test, crop damage rating; details: 14 days after application, rating scale 0-100
Outline: as §1

[14] = test system: common ragweed (Ambrosia artemisiifolia L., AMBEL); test: Post-emerge greenhouse herbicide test, phytotoxicity rating; details: 14 days after application
Outline: (§2)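 Scores use a 0 (no damage) to 100 (complete kill) scale, taken 14 days after a foliar spray. Acetone solutions with 0.25% v/v non-ionic surfactant were applied by track sprayer at 187 l/ha and 63-1000 g ai/ha to bottom-watered 2-3 leaf plants.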

[15] = test system: Johnsongrass (Sorghum halepense, SORHA); test: as above; details: 14 days after application
Outline: as §2

[16] = test system: barnyardgrass (Echinochloa crusgalli, ECHCG); test: as above; details: 14 days after application
Outline: as §2

[17] = test system: green foxtail (Setaria viridis, SETVI); test: as above; details: 14 days after application
Outline: as §2

[18] = test system: ivyleaf morningglory (Ipomoea hederacea, IPOHE); test: as above; details: 14 days after application
Outline: as §2

[19] = test system: lambsquarters (Chenopodium album, CHEAL); test: as above; details: 14 days after application
Outline: as §2

[20] = test system: large crabgrass (Digitaria sanguinalis, DIGSA); test: as above; details: 14 days after application
Outline: as §2

[21] = test system: redroot pigweed (Amaranthus retroflexus, AMARE); test: as above; details: 14 days after application
Outline: as §2

[22] = test system: sicklepod (Cassia obtusifolia, CASOB); test: as above; details: 14 days after application
Outline: as §2

[23] = test system: velvetleaf (Abutilon theophrasti, ABUTH); test: as above; details: 14 days after application
Outline: as §2

[24] = test system: field corn (Zea mays L., var. Dekalb 535, CORN); test: Post-emerge greenhouse test, crop damage rating; details: 14 days after application
Outline: as §2

[25] = test system: upland rice (Oryza sp., var.Tebonnet, RICE); test: Post-emerge greenhouse test, crop damage rating; details: 14 days after application
Outline: as §2

[26] = test system: soybean (Glycine max L., var. Pella 86, SOY); test: Post-emerge greenhouse test, crop damage rating; details: 14 days after application
Outline: as §2

Cn1c(C(F)(F)F)nc(-c2cc(Oc3ncccc3[N+](=O)[O-])c(Cl)cc2F)c1Cl [Compound 2-1]
phytotoxicity rating SORHA ([1]; 125 g ai/ha): 0
phytotoxicity rating SORHA ([1]; 500 g ai/ha): 30
phytotoxicity rating ECHCG ([2]; 125 g ai/ha): 0
phytotoxicity rating ECHCG ([2]; 500 g ai/ha): 20
phytotoxicity rating AMBEL ([3]; 125 g ai/ha): 0
phytotoxicity rating AMBEL ([3]; 500 g ai/ha): 50
phytotoxicity rating SETVI ([4]; 125 g ai/ha): 90
phytotoxicity rating SETVI ([4]; 500 g ai/ha): 99
phytotoxicity rating IPOHE ([5]; 125 g ai/ha): 10
phytotoxicity rating IPOHE ([5]; 500 g ai/ha): 100
phytotoxicity rating CHEAL ([6]; 125 g ai/ha): 60
phytotoxicity rating CHEAL ([6]; 500 g ai/ha): 100
phytotoxicity rating DIGSA ([7]; 125 g ai/ha): 0
phytotoxicity rating DIGSA ([7]; 500 g ai/ha): 70
phytotoxicity rating AMARE ([8]; 125 g ai/ha): 100
phytotoxicity rating AMARE ([8]; 500 g ai/ha): 100
phytotoxicity rating CASOB ([9]; 125 g ai/ha): 0
phytotoxicity rating CASOB ([9]; 500 g ai/ha): 30
phytotoxicity rating ABUTH ([10]; 125 g ai/ha): 0
phytotoxicity rating ABUTH ([10]; 500 g ai/ha): 50
crop damage rating CORN ([11]; 125 g ai/ha): 0
crop damage rating CORN ([11]; 500 g ai/ha): 0
crop damage rating RICE ([12]; 125 g ai/ha): 0
crop damage rating RICE ([12]; 500 g ai/ha): 0
crop damage rating SOY ([13]; 125 g ai/ha): 0
crop damage rating SOY ([13]; 500 g ai/ha): 70
AMBEL phytotoxicity rating (0-100) ([14]; 63 g al/ha): 10
AMBEL phytotoxicity rating (0-100) ([14]; 500 g al/ha): 40
SORHA phytotoxicity rating (0-100) ([15]; 63 g al/ha): 0
SORHA phytotoxicity rating (0-100) ([15]; 500 g al/ha): 10
ECHCG phytotoxicity rating (0-100) ([16]; 63 g al/ha): 0
ECHCG phytotoxicity rating (0-100) ([16]; 500 g al/ha): 30
SETVI phytotoxicity rating (0-100) ([17]; 63 g al/ha): 30
SETVI phytotoxicity rating (0-100) ([17]; 500 g al/ha): 65
IPOHE phytotoxicity rating (0-100) ([18]; 63 g al/ha): 60
IPOHE phytotoxicity rating (0-100) ([18]; 500 g al/ha): 65
CHEAL phytotoxicity rating (0-100) ([19]; 63 g al/ha): 80
CHEAL phytotoxicity rating (0-100) ([19]; 500 g al/ha): 99
DIGSA phytotoxicity rating (0-100) ([20]; 63 g al/ha): 0
DIGSA phytotoxicity rating (0-100) ([20]; 500 g al/ha): 20
AMARE phytotoxicity rating (0-100) ([21]; 63 g al/ha): 90
AMARE phytotoxicity rating (0-100) ([21]; 500 g al/ha): 100
CASOB phytotoxicity rating (0-100) ([22]; 63 g al/ha): 0
CASOB phytotoxicity rating (0-100) ([22]; 500 g al/ha): 30
ABUTH phytotoxicity rating (0-100) ([23]; 63 g al/ha): 40
ABUTH phytotoxicity rating (0-100) ([23]; 500 g al/ha): 85
CORN crop damage rating (0-100) ([24]; 63 g al/ha): 15
CORN crop damage rating (0-100) ([24]; 500 g al/ha): 20
RICE crop damage rating (0-100) ([25]; 63 g al/ha): 0
RICE crop damage rating (0-100) ([25]; 500 g al/ha): 20
SOY crop damage rating (0-100) ([26]; 63 g al/ha): 50
SOY crop damage rating (0-100) ([26]; 500 g al/ha): 75
